Measurements: patent US9211310B2, “Use of a Chinese medicine composition in preparing medicaments for treating secondary prevention of myocardial infarction” (TASLY PHARMACEUTICAL GROUP CO., LTD, priority 2010, dated 2015)

Tested on: patients after acute myocardial infarction
Test: TCM symptom score, total and single (chest pain, chest tightness, short breath, fatigue, palpitation, spontaneous perspiration, pale complexion), same clinical trial
Assay type: in vivo, human
Parameters: total score of TCM symptom, Mean / total score of TCM symptom, Min / total score of TCM symptom, Max / total score of TCM symptom, Md / change of total score of TCM symptom, Mean / change of total score of TCM symptom, Max / change of total score of TCM symptom, Md: scale not given here
Conditions: PP
Source text: 3508 patients who were in accordance with the diagnostic standards of AMI for 28 days to 2 years and differentiated as Qi deficiency and blood stagnation syndrome by TCM were studied. 0.5 g Chinese medicine composition prepared by the method of EXAMPLE 1 (Coded as QSYQ) was administrated half an hour after meal, 3 times per day.
They included the overall survival time, angina pectoris score, TCM symptom score and life quality score, where angina pectoris score, TCM symptom score and life quality score were evaluated at randomization, in 1st, 3rd, 6th, 9th, 12th month after treatment and 18th month after follow-up.
The analysis method referred to the angina pectoris score.

[1] = 1 month after treatment-baseline
[2] = 3 month after treatment-baseline
[3] = 3 months after treatment-baseline

CC(=O)Oc1ccccc1C(=O)O [Control group, aspirine]
change of palpitation −3, number of patients [1]: 0
change of palpitation −3, percent of patients [1]: (0.00%)
change of short breath 0, % of patients [1]: (77.53%)
change of short breath 0, number of patients [1]: 1132
change of short breath 2, % of patients [1]: (14.59%)
change of short breath 2, number of patients [1]: 213
change of short breath 4, % of patients [1]: (1.71%)
change of short breath 4, number of patients [1]: 25
change of short breath 6, % of patients [1]: (0.41%)
change of short breath 6, number of patients [1]: 6
change of short breath −2, % of patients [1]: (5.27%)
change of short breath −2, number of patients [1]: 77
change of short breath −4, % of patients [1]: (0.48%)
change of short breath −4, number of patients [1]: 7
change of short breath −6, % of patients [1]: (0.00%)
change of short breath −6, number of patients [1]: 0
change of spontaneous perspiration 0, number of patients [1]: 1068
change of spontaneous perspiration 0, percent of patients [1]: (73.15%)
change of spontaneous perspiration 1, number of patients [1]: 238
change of spontaneous perspiration 1, percent of patients [1]: (16.30%)
change of spontaneous perspiration 2, number of patients [1]: 48
change of spontaneous perspiration 2, percent of patients [1]: (3.29%)
change of spontaneous perspiration 3, number of patients [1]: 12
change of spontaneous perspiration 3, percent of patients [1]: (0.82%)
change of spontaneous perspiration −1, number of patients [1]: 77
change of spontaneous perspiration −1, percent of patients [1]: (5.27%)
change of spontaneous perspiration −2, number of patients [1]: 14
change of spontaneous perspiration −2, percent of patients [1]: (0.96%)
change of spontaneous perspiration −3, number of patients [1]: 3
change of spontaneous perspiration −3, percent of patients [1]: (0.21%)
change of total score of TCM symptom, Max [1]: 24.00
change of total score of TCM symptom, Md [1]: −1.00
change of total score of TCM symptom, Mean [1]: −2.00
change of total score of TCM symptom, Min [1]: −28.00
change of total score of TCM symptom, Max [2]: 19.00
change of total score of TCM symptom, Md [2]: −2.00
change of total score of TCM symptom, Mean [2]: −3.05
change of total score of TCM symptom, Min [2]: −28.00
distribution of total score of TCM symptom: Medium, number of patients (3 months after treatment): 489
distribution of total score of TCM symptom: Medium, percentage of patients (3 months after treatment): (33.79%)
distribution of total score of TCM symptom: Mild, number of patients (3 months after treatment): 946
distribution of total score of TCM symptom: Mild, percentage of patients (3 months after treatment): (65.38%)
distribution of total score of TCM symptom: Severe, number of patients (3 months after treatment): 12
distribution of total score of TCM symptom: Severe, percentage of patients (3 months after treatment): (0.83%)
fatigue score 0, % of patients (3 months after treatment): (28.28%)
fatigue score 0, number of patients (3 months after treatment): 409
fatigue score 2, % of patients (3 months after treatment): (59.75%)
fatigue score 2, number of patients (3 months after treatment): 864
fatigue score 4, % of patients (3 months after treatment): (11.41%)
fatigue score 4, number of patients (3 months after treatment): 165
fatigue score 6, % of patients (3 months after treatment): (0.55%)
fatigue score 6, number of patients (3 months after treatment): 8
pale complexion score 0, number of patients (3 months after treatment): 693
pale complexion score 0, percent of patients (3 months after treatment): (47.89%)
pale complexion score 1, number of patients (3 months after treatment): 566
pale complexion score 1, percent of patients (3 months after treatment): (39.12%)
pale complexion score 2, number of patients (3 months after treatment): 172
pale complexion score 2, percent of patients (3 months after treatment): (11.89%)
pale complexion score 3, number of patients (3 months after treatment): 16
pale complexion score 3, percent of patients (3 months after treatment): (1.11%)
palpitation score 0, number of patients (3 months after treatment): 403
palpitation score 0, percent of patients (3 months after treatment): (27.87%)
palpitation score 2, number of patients (3 months after treatment): 759
palpitation score 2, percent of patients (3 months after treatment): (52.49%)
palpitation score 4, number of patients (3 months after treatment): 261
palpitation score 4, percent of patients (3 months after treatment): (18.05%)
palpitation score 6, number of patients (3 months after treatment): 23
palpitation score 6, percent of patients (3 months after treatment): (1.59%)
short breath score 0, % of patients (3 months after treatment): (21.44%)
short breath score 0, number of patients (3 months after treatment): 310
short breath score 3, % of patients (3 months after treatment): (59.13%)
short breath score 3, number of patients (3 months after treatment): 855
short breath score 6, % of patients (3 months after treatment): (18.74%)
short breath score 6, number of patients (3 months after treatment): 271
short breath score 9, % of patients (3 months after treatment): (0.69%)
short breath score 9, number of patients (3 months after treatment): 10
spontaneous perspiration score 0, number of patients (3 months after treatment): 563
spontaneous perspiration score 0, percent of patients (3 months after treatment): (38.93%)
spontaneous perspiration score 1, number of patients (3 months after treatment): 709
spontaneous perspiration score 1, percent of patients (3 months after treatment): (49.03%)
spontaneous perspiration score 2, number of patients (3 months after treatment): 167
spontaneous perspiration score 3, number of patients (3 months after treatment): 7
spontaneous perspiration score 3, percent of patients (3 months after treatment): (0.48%)
total score of TCM symptom, Max (3 months after treatment): 33.00
total score of TCM symptom, Md (3 months after treatment): 10.00
total score of TCM symptom, Mean (3 months after treatment): 10.88
total score of TCM symptom, Min (3 months after treatment): 0.00
change of fatigue 0, % of patients [3]: (63.96%)
change of fatigue 0, number of patients [3]: 923
change of fatigue 2, % of patients [3]: (25.50%)
change of fatigue 2, number of patients [3]: 368
change of fatigue 4, % of patients [3]: (4.16%)
change of fatigue 4, number of patients [3]: 60
change of fatigue 6, % of patients [3]: (0.97%)
change of fatigue 6, number of patients [3]: 14
change of fatigue −2, % of patients [3]: (4.85%)
change of fatigue −2, number of patients [3]: 70
change of fatigue −4, % of patients [3]: (0.42%)
change of fatigue −4, number of patients [3]: 6
change of fatigue −6, % of patients [3]: (0.14%)
change of fatigue −6, number of patients [3]: 2
change of pale complexion 0, number of patients [3]: 1177
change of pale complexion 0, percent of patients [3]: (81.68%)
change of pale complexion 1, number of patients [3]: 217
change of pale complexion 1, percent of patients [3]: (15.06%)
change of pale complexion −1, number of patients [3]: 47
change of pale complexion −1, percent of patients [3]: (3.26%)
change of palpitation 0, number of patients [3]: 943
change of palpitation 0, percent of patients [3]: (65.35%)
change of palpitation 1, number of patients [3]: 356
change of palpitation 1, percent of patients [3]: (24.67%)
change of palpitation 2, number of patients [3]: 39
change of palpitation 2, percent of patients [3]: (2.70%)
change of palpitation 3, number of patients [3]: 5
change of palpitation 3, percent of patients [3]: (0.35%)
change of palpitation −1, number of patients [3]: 99
change of palpitation −1, percent of patients [3]: (6.86%)
change of palpitation −2, number of patients [3]: 1
change of palpitation −2, percent of patients [3]: (0.07%)
change of palpitation −3, number of patients [3]: 0
change of palpitation −3, percent of patients [3]: (0.00%)
change of short breath 0, % of patients [3]: (70.27%)
change of short breath 0, number of patients [3]: 1014
change of short breath 2, % of patients [3]: (21.41%)
